Reference: ChEMBL document CHEMBL5537180, “Discovery of Novel Aminobutanoic Acid-Based ASCT2 Inhibitors for the Treatment of Non-Small-Cell Lung Cancer” (J Med Chem, 2024)
Calls of active or inactive are those of the source. The rule behind the calls is not given here.

Key:
[1] = Apparent clearance in Sprague-Dawley rat at 10 mg/kg, ip incubated for 24 hrs by LC-MS/MS analysis; type: ADME, organism-based; conditions: in vivo
[2] = Toxicity in BALB/c nude mouse assessed as effect on heart at 25 to 50 mg/kg, ip measured after 3 weeks by H and E staining based analysis; type: organism-based; conditions: in vivo, 504 h, dose 25-50 mg/kg
NSCLC = assay: Antiproliferative activity against human NSCLC cells cultured as 2566 organoids assessed as cell viability incubated for 96 hrs by Celltiter-glo viability assay; type: functional, cell-based
A549 [3] = assay: Induction of apoptosis in human A549 cells assessed as necrotic cells at 5 uM measured after 24 hrs by annexin-V/PI staining based flow cytometry analysis (reference value: 0.13%); type: functional
A549 [4] = assay: Induction of apoptosis in human A549 cells assessed as viable cells at 10 uM measured after 24 hrs by annexin-V/PI staining based flow cytometry analysis (reference value: 97.0%); type: functional; conditions: read-out: Activity
[5] = target: T1, Sodium-coupled neutral amino acid symporter 1 (Homo sapiens) (UniProt Q9H2H9); assay: Inhibition of SNAT1 (unknown origin) overexpressed in human A549 cells assessed as reduction in [13C]-Gln uptake preincubated for 5 mins followed by substrate addition and measured after 15 mins; type: cell-based; conditions: time 20.0 min
T1 sequence (whole entry): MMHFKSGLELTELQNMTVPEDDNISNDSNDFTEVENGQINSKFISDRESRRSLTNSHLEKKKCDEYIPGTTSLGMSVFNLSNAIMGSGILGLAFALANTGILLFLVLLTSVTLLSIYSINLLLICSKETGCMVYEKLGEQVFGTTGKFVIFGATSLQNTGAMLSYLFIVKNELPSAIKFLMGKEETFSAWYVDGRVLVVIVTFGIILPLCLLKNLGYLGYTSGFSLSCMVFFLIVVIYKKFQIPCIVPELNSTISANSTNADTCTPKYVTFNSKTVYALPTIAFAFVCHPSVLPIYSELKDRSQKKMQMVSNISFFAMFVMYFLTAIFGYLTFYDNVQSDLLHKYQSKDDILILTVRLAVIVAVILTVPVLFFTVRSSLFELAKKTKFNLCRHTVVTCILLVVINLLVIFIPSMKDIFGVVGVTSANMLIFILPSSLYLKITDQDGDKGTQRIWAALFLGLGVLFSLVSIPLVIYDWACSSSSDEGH

A549 [6] = assay: Induction of apoptosis in human A549 cells assessed as late apoptotic cells at 10 uM measured after 24 hrs by annexin-V/PI staining based flow cytometry analysis (reference value: 1.34%); type: functional
A549 [7] = assay: Induction of apoptosis in human A549 cells assessed as necrotic cells at 10 uM measured after 24 hrs by annexin-V/PI staining based flow cytometry analysis (reference value: 0.13%); type: functional
[8] = Bioavailability in Sprague-Dawley rat at 10 mg/kg, ip incubated for 24 hrs by LC-MS/MS analysis; type: ADME, organism-based; conditions: in vivo
A549 [9] = assay: Induction of apoptosis in human A549 cells assessed as late apoptotic cells at 5 uM measured after 24 hrs by annexin-V/PI staining based flow cytometry analysis (reference value: 1.34%); type: functional
A549 [10] = assay: Induction of apoptosis in human A549 cells assessed as early apoptotic cells at 5 uM measured after 24 hrs by annexin-V/PI staining based flow cytometry analysis (reference value: 1.56%); type: functional
A549 [11] = assay: Induction of apoptosis in human A549 cells assessed as early apoptotic cells at 10 uM measured after 24 hrs by annexin-V/PI staining based flow cytometry analysis (reference value: 1.56%); type: functional
A549 [12] = assay: Induction of apoptosis in human A549 cells assessed as viable cells at 5 uM measured after 24 hrs by annexin-V/PI staining based flow cytometry analysis (reference value: 97.0%); type: functional; conditions: read-out: Activity

SMILES | CL/F [1] [mL/min/kg] | Activity [2] | IC50 (NSCLC) [µM] | Activity (A549 [3]) [%] | viability at 10 µM (A549 [4]) [%] | inhibition [5] | Activity (A549 [6]) [%] | Activity (A549 [7]) [%] | bioavailability [8] [%] | Activity (A549 [9]) [%] | Activity (A549 [10]) [%] | Activity (A549 [11]) [%] | viability at 5 µM (A549 [12]) [%]
CC(C)(C)c1ccc(OCC#Cc2ccccc2)c(CN(CC[C@H](N)C(=O)O)Cc2cc(C(C)(C)C)ccc2OCC#Cc2ccccc2)c1 | 12 | Toxic | 8.08 |  |  |  |  |  |  |  |  |  | 
N[C@@H](CCN(Cc1ccccc1OCC#Cc1ccc(Cl)cc1)Cc1ccccc1OCC#Cc1ccc(Cl)cc1)C(=O)O | 60.5 | Toxic | 5.09 | 0.79 | 84.4 | Active | 7.29 | 1.4 | 77 | 6.44 | 2.47 | 6.93 | 90.3
